Results taken from patent US20070166710A1, “Methods for inhibiting adipogenesis and for treating type 2 diabetes” (priority 2003, published 2007).
Substitutions are numbered along the chain they refer to.

Tests used:
[1] = test system: Foxa-2; experiment: Immunofluorescence of subcellular distribution of endogenous Foxa-2 in HepG2 cells; type: cell-based; conditions: inhibitor in the presence of insulin (50 nM)
Procedure: Immunofluorescence microscopy. Cells were fixed for 30 minutes at room temperature with 2% paraformaldehyde. For immunofluorescent detection of Foxa-1 or Foxa-2, fixed cells were incubated with respective polyclonal antibodies (1:100) (Ruiz i Altaba et al. (1993) Mech. Dev. 44: 91-108) overnight at 4° C. After washing, the cells were treated with anti rabbit IgG secondary antibody linked to Alexa Fluor 488 (Molecular Probes). Immunofluorescent staining was visualized using laser-scanning micrsocopy. To determine whether Akt-induced phosporylation of Foxa-2 has an effect on the subcellular distribution of this transcription factor, the following experiment was performed. HepG2 cells were grown to 60% confluency and endogenous Foxa-1 and Foxa-2 proteins were visualized by immunofluorescence after staining with anti Foxa-1 and Foxa-2 antibodies. Cells were either examined in the absence or presence of insulin (50 nM) and/or Ly294002 or PD98059, and after transfection with either Akt1 or Akt2 expression vectors (FIG. 5B). […] Treatment of cells with MAPKK1 inhibitor PD98059 had no effect on insulin stimulated nuclear exclusion of Foxa-2. The subcellular distribution of Foxa-2 in cells that were stimulated with insulin and expressed a dominant negative form of Akt (Akt[…]) were resistant to nuclear exclusion. […]

[2] = test system: Foxa-2 activity; experiment: Transactivation assay, HepG2 cells transfected with Foxa-2 and pPepck-Luc or p6xCdx-TkLuc; type: cell-based, rat; conditions: coincubation, inhibitor 10 μM, insulin 100 nM
[3] = test system: Pepck, G6pc and Igfbp-1; experiment: mRNA levels of Foxa-2 target genes in primary hepatocytes (RT-PCR); type: cell-based; conditions: inhibitor together with insulin
Procedure: FIGS. 10a-d depict the effect of insulin on Foxa-2 activity. FIG. 10a is a bar graph depicting relative Foxa-2 activity in HepG2 cells transfected with an expression vector for Foxa-2 and […]-Luc (gray bars) or p6xCdx-TkLuc (black bars). Cells were treated with insulin alone or in the presence of Ly294002 or PD98059. FIG. 10b is a bar graph depicting relative Foxa-2 activity in HepG2 cells transfected with p6xCdx-TkLuc and treated with insulin alone or in the presence of Ly294002 or PD98059. […] FIG. 10d is a bar graph depicting relative Foxa-2 activity in HepG2 cells transfected with an expression vector for Foxa-1, Foxa-2, Akt or Akt[…] alone or in combination, using p6xCdx-TkLuc as reporter gene. In all experiments luciferase activity was normalized to β-Gal activity. […] Levels of mRNA were analyzed to determine whether inhibition of Foxa-2 target gene expression by insulin is controlled at a transcriptional or posttranscriptional level. The mRNA levels of Pepck, G6pc and Igfbp-1 in primary hepatocytes that were cultured either in the presence or absence of insulin, PI3-kinase or MAPKK1 inhibitors were measured.

[4] = target: T1, HA-Akt (human Akt1 fused to an N-terminal HA-tag, expressed from pCMV-HA-Akt) (human, UniProt P31749 1-480); experiment: co-immunoprecipitation from transfected HEK/293 cells (anti-HA IP, Western blot for Foxa-2; the reverse anti-Foxa-2 IP also coprecipitated Akt)
T1 construct: Expressed in transfected HEK/293 or HepG2 cells; The methods also mention Akt2 for HEK/293 transfections, but pCMV-HA-Akt is defined as HA-Akt1; also called HA-Akt1; pCMV-HA-Akt-1; not shown: N-terminal HA-tag
T1 sequence (P31749 whole entry, the tested form may be a part): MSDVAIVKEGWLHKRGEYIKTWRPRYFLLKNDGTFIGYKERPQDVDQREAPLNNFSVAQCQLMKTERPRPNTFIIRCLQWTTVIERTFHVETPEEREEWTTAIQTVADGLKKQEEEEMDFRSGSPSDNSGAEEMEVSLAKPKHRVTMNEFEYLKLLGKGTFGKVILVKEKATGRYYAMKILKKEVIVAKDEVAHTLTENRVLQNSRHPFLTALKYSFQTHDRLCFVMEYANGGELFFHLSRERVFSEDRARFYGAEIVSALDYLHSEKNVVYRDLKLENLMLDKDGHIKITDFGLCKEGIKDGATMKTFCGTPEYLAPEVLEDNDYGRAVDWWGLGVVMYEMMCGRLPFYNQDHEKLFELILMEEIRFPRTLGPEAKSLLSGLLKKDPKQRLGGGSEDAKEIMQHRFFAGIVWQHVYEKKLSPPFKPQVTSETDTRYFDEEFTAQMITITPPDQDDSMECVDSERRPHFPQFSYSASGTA

[5] = target: T1, HA-Akt (human Akt1 fused to an …); experiment: co-immunoprecipitation from transfected HEK/293 cells (anti-HA IP; the reverse anti-Foxa-2 IP gave the same result)

Molecule: COc1cccc(-c2cc(=O)c3ccccc3o2)c1N [PD98059, reference compound]
- subcellular localization of endogenous Foxa-2 / insulin stimulated nuclear exclusion [1]: no effect
- insulin mediated decrease of Foxa-2 activity [2]: did not influence
- mRNA levels of Pepck, G6pc and Igfbp-1 [3]: significantly reduced

B1: Foxa-2T156A (other, rat, UniProt P32182 1-458, looked up)
chain: MLGAVKMEGHEPSDWSSYYAEPEGYSSVSNMNASLGMNGMNTYMSMSAAAMGSGSGNMSAGSMNMSSYVGAGMSPSLAGMSPGAGAMAGMSGSAGAAGVAGMGPHLSPSLSPLGGQAAGAMGGLAPYANMNSMSPMYGQAGLSRARDPKTYRRSYAHAKPPYSYISLITMAIQQSPNKMLTLSEIYQWIMDLFPFYRQNQQRWQNSIRHSLSFNDFLKVPRAPDKPGKGSFWTLHPDSGNMFENGCYLRRQKRFKCENELALKEAAGAGSGGGKKTAPGTQASQVQLGEAAGSASETPAGTESPHSSASPCQEHKRGGLSELKGTPASALSPPEPAPSPGQQQQAAAHLLGPPHHPGLPPEAHLKPEHHYAFNHPFSINNLMSSEQQHHHSHHHHQPHKMDLKTYEQVMHYPGGYGSPMPGSLAMGPVTNKAGLDASPLAADTSYYQGVYSRPIMNSS
notes: Phosphorylation-deficient mutant; also called TI56A; Foxa-2TI56A
- binding result [4]: binds

B2: Foxa-2R153K (other, rat, UniProt P32182 1-458, looked up)
chain: B1 chain with R153K, A156T
- binding result [5]: no binding
